Columns and labels:
giant foxtail = experiment: Test B pre/postemergence giant foxtail; format: in vivo, Setaria faberii
Summary of the method: (§1)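 Herbicidal effect was estimated by eye on a ten-point control scale after plants spent twelve to sixteen days in a greenhouse following soil or foliar treatment. Foliar sprays targeted plants at one to four leaves; all doses were formulated in a non-phytotoxic solvent with surfactant.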

crabgrass = experiment: Test B pre/postemergence crabgrass; format: in vivo, Digitaria sanguinalis
Summary of the method: as §1

bedstraw = experiment: Test B pre/postemergence bedstraw; format: in vivo, Galium aparine
Summary of the method: as §1

sugar beet = experiment: Test B pre/postemergence sugar beet; format: in vivo, Beta vulgaris
Summary of the method: as §1

purple nutsedge = experiment: Test B pre/postemergence purple nutsedge; format: in vivo, Cyperus rotundus
Summary of the method: as §1

rape = experiment: Test B pre/postemergence rape; format: in vivo, Brassica napus
Summary of the method: as §1

velvetleaf = experiment: Test B pre/postemergence velvetleaf; format: in vivo, Abutilon theophrasti
Summary of the method: as §1

wild oat = experiment: Test B pre/postemergence wild oat; format: in vivo, Avena fatua
Summary of the method: as §1

morningglory = experiment: Test B pre/postemergence morningglory; format: in vivo, Ipomoea hederacea
Summary of the method: as §1

wheat = experiment: Test B pre/postemergence wheat; format: in vivo, Triticum aestivum
Summary of the method: as §1

soybean = experiment: Test B pre/postemergence soybean; format: in vivo, Glycine max
Summary of the method: as §1

blackgrass = experiment: Test B pre/postemergence blackgrass; format: in vivo, Alopecurus myosuroides
Summary of the method: as §1

surinam grass = experiment: Test B pre/postemergence surinam grass; format: in vivo, Brachiaria decumbens
Summary of the method: as §1

corn = experiment: Test B pre/postemergence corn; format: in vivo, Zea mays
Summary of the method: as §1

duck salad = experiment: Test B flood test duck salad; format: in vivo, Heteranthera limosa; settings: Rate 125 g/ha; Postemergence section (flood test species); scale 0 to 10, 0 no effect, 10 complete control
Description: At the same time, these crop and weed species were also treated with postemergence applications of test chemicals formulated in the same manner. Plants ranged in height from 2 to 18 cm (1- to 4-leaf stage) for postemergence treatments. Plant species in the flood test consisted of rice (Oryza sativa), smallflower flatsedge (Cyperus difformis), duck salad (Heteranthera limosa) and bamyardgrass (Echinochloa crus-galli) grown to the 2-leaf stage for testing. Treated plants and controls were maintained in a greenhouse for twelve to sixteen days, after which all species were compared to controls and visually evaluated. Plant response ratings, summarized in Table B, are based on a scale of 0 to 10 where 0 is no effect and 10 is complete control. A dash (−) response means no test result.

pigweed = experiment: Test B pre/postemergence pigweed; format: in vivo, Amaranthus retroflexus
Summary of the method: as §1

cocklebur = experiment: Test B pre/postemergence cocklebur; format: in vivo, Xanthium strumarium; settings: for Cocklebur plant response rating: Postemergence; for Plant response rating, Cocklebur: Preemergence
Summary of the method: as §1

[1] = Postemergence, Rate 62 g/ha, scale 0 to 10, 0 is no effect, 10 is complete control
[2] = Postemergence, Rate 250 g/ha, scale 0 to 10, 0 no effect, 10 complete control
[3] = Preemergence, Rate 62 g/ha, scale 0 to 10, 0 is no effect, 10 is complete control
[4] = Preemergence, Rate 125 g/ha, scale 0 to 10 (0 no effect, 10 complete control)
[5] = Preemergence, Rate 250 g/ha, scale of 0 to 10 where 0 is no effect and 10 is complete control
[6] = Preemergence, Rate 500 g/ha, scale 0 (no effect) to 10 (complete control)
[7] = Rate 125 g/ha, Postemergence, scale 0 to 10, 0 no effect, 10 complete control
[8] = Rate 500 g/ha, Postemergence, 0 to 10 scale (0 no effect, 10 complete control)
[9] = Rate 62 g/ha, scale 0 to 10, 0 is no effect, 10 is complete control

Cc1ccccc1-n1c(=O)on(C(=O)N(c2ccc(F)cc2)C2CC2)c1=O [Compound 37]
Giant foxtail plant response rating (giant foxtail; [1]): 0
Giant foxtail plant response rating (giant foxtail; [2]): 0
Plant response rating, Giant foxtail (giant foxtail; [3]): 0
Plant response rating, Giant foxtail (giant foxtail; [4]): 0
Plant response rating, Giant foxtail (giant foxtail; [5]): 2
Giant foxtail plant response rating (giant foxtail; [6]): 3
Giant foxtail plant response rating (giant foxtail; [7]): 0
Giant foxtail plant response rating (giant foxtail; [8]): 0
Crabgrass plant response rating (crabgrass; [1]): 0
Crabgrass plant response rating (crabgrass; [2]): 0
Plant response rating, Crabgrass (crabgrass; [3]): 0
Plant response rating, Crabgrass (crabgrass; [4]): 0
Plant response rating, Crabgrass (crabgrass; [5]): 3
Crabgrass plant response rating (crabgrass; [6]): 5
Crabgrass plant response rating (crabgrass; [7]): 0
Crabgrass plant response rating (crabgrass; [8]): 3
Bedstraw plant response rating (bedstraw; [1]): 0
Bedstraw plant response rating (bedstraw; [2]): 0
Plant response rating, Bedstraw (bedstraw; [3]): 0
Plant response rating, Bedstraw (bedstraw; [4]): 0
Plant response rating, Bedstraw (bedstraw; [5]): 0
Bedstraw plant response rating (bedstraw; [6]): 0
Bedstraw plant response rating (bedstraw; [7]): 0
Bedstraw plant response rating (bedstraw; [8]): 0
Sugarbeets plant response rating (sugar beet; [1]): 0
Sugarbeets plant response rating (sugar beet; [2]): 0
Plant response rating, Sugarbeets (sugar beet; [3]): 0
Plant response rating, Sugarbeets (sugar beet; [4]): 0
Plant response rating, Sugarbeets (sugar beet; [5]): 0
Sugarbeets plant response rating (sugar beet; [6]): 0
Sugarbeets plant response rating (sugar beet; [7]): 0
Nutsedge plant response rating (purple nutsedge; [1]): 0
Nutsedge plant response rating (purple nutsedge; [2]): 0
Plant response rating, Nutsedge (purple nutsedge; [3]): 0
Plant response rating, Nutsedge (purple nutsedge; [4]): 0
Plant response rating, Nutsedge (purple nutsedge; [5]): 0
Nutsedge plant response rating (purple nutsedge; [6]): 0
Nutsedge plant response rating (purple nutsedge; [7]): 0
Rape plant response rating (rape; [1]): 0
Rape plant response rating (rape; [2]): 0
Plant response rating, Rape (rape; [3]): 0
Plant response rating, Rape (rape; [4]): 0
Plant response rating, Rape (rape; [5]): 0
Rape plant response rating (rape; [6]): 0
Rape plant response rating (rape; [7]): 0
Rape plant response rating (rape; [8]): 0
Velvetleaf plant response rating (velvetleaf; [1]): 0
Velvetleaf plant response rating (velvetleaf; [2]): 0
Plant response rating, Velvetleaf (velvetleaf; [3]): 0
Plant response rating, Velvetleaf (velvetleaf; [4]): 0
Plant response rating, Velvetleaf (velvetleaf; [5]): 0
Velvetleaf plant response rating (velvetleaf; [6]): 0
Velvetleaf plant response rating (velvetleaf; [7]): 0
Wild oats plant response rating (wild oat; [1]): 0
Wild oats plant response rating (wild oat; [2]): 0
Plant response rating, Wild oats (wild oat; [4]): 0
Plant response rating, Wild oats (wild oat; [5]): 0
Wild oats plant response rating (wild oat; [6]): 0
Wild oats plant response rating (wild oat; [7]): 0
Morningglory plant response rating (morningglory; [1]): 0
Morningglory plant response rating (morningglory; [2]): 0
Plant response rating, Morningglory (morningglory; [3]): 0
Plant response rating, Morningglory (morningglory; [4]): 0
Plant response rating, Morningglory (morningglory; [5]): 0
Morningglory plant response rating (morningglory; [6]): 0
Morningglory plant response rating (morningglory; [7]): 0
Morningglory plant response rating (morningglory; [8]): 1
Wheat plant response rating (wheat; [1]): 0
Wheat plant response rating (wheat; [2]): 0
Plant response rating, Wheat (wheat; [3]): 0
Plant response rating, Wheat (wheat; [4]): 0
Plant response rating, Wheat (wheat; [5]): 0
Wheat plant response rating (wheat; [6]): 0
Wheat plant response rating (wheat; [7]): 0
Soybean plant response rating (soybean; [1]): 0
Soybean plant response rating (soybean; [2]): 0
Plant response rating, Soybean (soybean; [3]): 0
Plant response rating, Soybean (soybean; [4]): 0
Plant response rating, Soybean (soybean; [5]): 0
Soybean plant response rating (soybean; [6]): 0
Soybean plant response rating (soybean; [7]): 0
Blackgrass plant response rating (blackgrass; [1]): 0
Blackgrass plant response rating (blackgrass; [2]): 0
Plant response rating, Blackgrass (blackgrass; [3]): 0
Plant response rating, Blackgrass (blackgrass; [4]): 0
Plant response rating, Blackgrass (blackgrass; [5]): 0
Blackgrass plant response rating (blackgrass; [6]): 0
Blackgrass plant response rating (blackgrass; [7]): 0
Blackgrass plant response rating (blackgrass; [8]): 0
B. signalgrass plant response rating (surinam grass; [1]): 0
B. signalgrass plant response rating (surinam grass; [2]): 0
Plant response rating, B. signalgrass (surinam grass; [3]): 0
Plant response rating, B. signalgrass (surinam grass; [4]): 0
Plant response rating, B. signalgrass (surinam grass; [5]): 0
B. signalgrass plant response rating (surinam grass; [6]): 0
B. signalgrass plant response rating (surinam grass; [7]): 0
B. signalgrass plant response rating (surinam grass; [8]): 0
Corn plant response rating (corn; [1]): 0
Corn plant response rating (corn; [2]): 0
Plant response rating, Corn (corn; [3]): 0
Plant response rating, Corn (corn; [4]): 0
Plant response rating, Corn (corn; [5]): 0
Corn plant response rating (corn; [6]): 0
Corn plant response rating (corn; [7]): 0
Corn plant response rating (corn; [8]): 0
Ducksalad plant response rating (duck salad): 0
Redroot pigweed plant response rating (pigweed; [1]): 0
Redroot pigweed plant response rating (pigweed; [2]): 0
Plant response rating, Redroot pigweed (pigweed; [3]): 0
Plant response rating, Redroot pigweed (pigweed; [4]): 0
Plant response rating, Redroot pigweed (pigweed; [5]): 0
Redroot pigweed plant response rating (pigweed; [6]): 0
Redroot pigweed plant response rating (pigweed; [7]): 0
Redroot pigweed plant response rating (pigweed; [8]): 0
Cocklebur plant response rating (cocklebur; [9]): 0
Cocklebur plant response rating (cocklebur; Rate 250 g/ha, scale 0 to 10, 0 no effect, 10 complete control): 0
Plant response rating, Cocklebur (cocklebur; [9]): 0
Plant response rating, Cocklebur (cocklebur; Rate 125 g/ha, scale 0 to 10 (0 no effect, 10 complete control)): 0
Plant response rating, Cocklebur (cocklebur; Rate 250 g/ha, scale of 0 to 10 where 0 is no effect and 10 is complete control): 0
Cocklebur plant response rating (cocklebur; Rate 125 g/ha, scale 0 to 10, 0 no effect, 10 complete control): 0
Cocklebur plant response rating (cocklebur; Rate 500 g/ha, 0 to 10 scale (0 no effect, 10 complete control)): 1
